Patent US20120156242A1 (priority 2009, published 2012)

Assays:
[1] = in vivo; for eliciting of antibody (antibody titer of rabbit immune serum against the peptide): sc
monoclonal antibody D-1 = assay: Inhibition by synthetic peptides of the neutralization activity of D-1; assay type: cell-based, human; conditions: D-1 and influenza A virus incubated with synthetic peptide

Sequence | eliciting of antibody (antibody titer of rabbit immune serum against the peptide) [1] | neutralization inhibition rate (monoclonal antibody D-1) | antigenicity ([1]; rabbit)
NIPSRISIYWTIVKPGD [peptide 2] | could elicit the antibody in rabbit | about 20% | 
TMPNNEKFDKLYIWGVHHPGT [peptide 1] | could elicit the antibody in rabbit | about 50% | high antigenicity compared with the lower region peptide
